# Where two headings read alike, the source gives them in different places.
# System: cancer cell lines from the cancer cell line encyclopedia (CCLE)
# Experiment: Cell line profiling (CLiP) proliferation experiment
# Format: cell-based
# Conditions: Homo sapiens; for IC50: read-out: Crossing Point; for EC50: read-out: Inflection Point
# Description: Compound profiling experiment and data analysis was performed as previously described. Data was imported and plotted using the Tibco Spotfire DXP application. Lines were categorized as sensitive, intermediate and refractory as follows: Amax<-40 & Inflection Point <2 ~ Sensitive, Amax>-20 & Inflection Point >10 ~ Refractory, all else were called Intermediate. Cancer Cell line HG-U133 Plus 2 data was processed and normalized as described. […] Five sets of refractory cell lines were generated from the pool of refractory cell lines trying to match the lineage composition of the set of sensitive cell lines. The limma package was used as previously described to perform the statistical comparison.
# [1] = HCC1187, cell line HCC1187, breast
# [2] = HCC1954, cell line HCC1954, breast
# [3] = HCT-15, cell line HCT-15, large_intestine
# [4] = HCT-116, cell line HCT 116, large_intestine
# [5] = HEC-1-A, cell line HEC-1-A, endometrium
# [6] = HPBALL, cell line HPB-ALL, haematopoietic_and_lymphoid_tissue
# [7] = Hs 294T, cell line Hs 294T, skin
# [8] = Hs 695T, cell line Hs 695T, skin
smiles,measurement,setting,value
CC(C)[C@@]12C[C@@H](O)[C@@](C)(O1)[C@@H]1CC[C@@H](C)[C@H]1[C@@H]2OC(=O)/C=C/c1ccccc1 [Englerin B],IC50,"HCC1143, cell line HCC1143",> 30 µM
same,IC50,[1],13.8 µM
same,EC50,[1],8.08 µM
same,IC50,"HCC1395, cell line HCC1395, breast",> 30 µM
same,IC50,"HCC1395, cell line HCC1395",> 30 µM
same,IC50,"HCC1419, cell line HCC1419, breast",25.1 µM
same,IC50,"HCC1428, cell line HCC1428, breast",> 30 µM
same,IC50,"HCC1428, cell line HCC1428",> 30 µM
same,IC50,"HCC1569, cell line HCC1569, breast",28.7 µM
same,IC50,"HCC1806, cell line HCC1806, breast",> 30 µM
same,IC50,"HCC1806, cell line HCC1806",> 30 µM
same,IC50,"HCC1937, cell line HCC1937, breast",28.9 µM
same,IC50,[2],13.9 µM
same,EC50,[2],11.3 µM
same,EC50,"HCC1954, cell line HCC1954",11.3 µM
same,IC50,"HCC2218, cell line HCC2218, breast",> 30 µM
same,IC50,"HCC2218, cell line HCC2218",> 30 µM
same,IC50,[3],> 30 µM
same,EC50,[3],10.4 µM
same,IC50,"HCT-15, cell line HCT-15",> 30 µM
same,IC50,[4],> 30 µM
same,EC50,[4],8.15 µM
same,IC50,"HCT-116, cell line HCT 116",> 30 µM
same,IC50,[5],> 30 µM
same,EC50,[5],16.7 µM
same,IC50,"HEC-1-A, cell line HEC-1-A",> 30 µM
same,IC50,"HEL 92.1.7, cell line HEL 92.1.7, haematopoietic_and_lymphoid_tissue",23.8 µM
same,IC50,"HGC-27, cell line HGC-27, stomach",10.9 µM
same,IC50,"HMCB, cell line HMCB, skin",> 30 µM
same,EC50,"HMCB, cell line HMCB, skin",18.8 µM
same,IC50,"HMCB, cell line HMCB",> 30 µM
same,EC50,"HMCB, cell line HMCB",18.8 µM
same,IC50,"HPBALL, cell line HPB-ALL (haematopoietic_and_lymphoid_tissue, acute_lymphoblastic_T_cell_leukaemia)",17.5 µM
same,IC50,[6],17.5 µM
same,EC50,[6],11.7 µM
same,IC50,"HRT-18, cell line HRT-18, large_intestine",20.1 µM
same,IC50,"HT55, cell line HT55, large_intestine",> 30 µM
same,IC50,"HT55, cell line HT55",> 30 µM
same,IC50,"HT-29, cell line HT-29, large_intestine",19 µM
same,IC50,"HT-144, cell line HT-144, skin",> 30 µM
same,IC50,"HT-144, cell line HT-144",> 30 µM
same,IC50,"HT-1080, cell line HT-1080, soft_tissue",> 30 µM
same,IC50,"HT-1080, cell line HT-1080",> 30 µM
same,IC50,"HT-1376, cell line HT-1376, urinary_tract",> 30 µM
same,IC50,"HT-1376, cell line HT-1376",> 30 µM
same,IC50,[7],> 30 µM
same,EC50,[7],22.6 µM
same,IC50,"Hs 294T, cell line Hs 294T",> 30 µM
same,IC50,[8],> 30 µM
same,EC50,[8],21.6 µM
same,IC50,"Hs 695T, cell line Hs 695T",> 30 µM
same,IC50,"Hs-578T, cell line Hs 578T, breast",> 30 µM
same,IC50,"Hs-578T, cell line Hs 578T",> 30 µM
same,IC50,"HuH-1, cell line huH-1, liver",> 30 µM
same,EC50,"HuH-1, cell line huH-1, liver",7.57 µM
same,IC50,"HuH-1, huH-1 (liver)",> 30 µM
same,IC50,"HuP-T3, cell line HUP-T3, pancreas",> 30 µM
same,IC50,"HuP-T3, cell line HUP-T3",> 30 µM
same,IC50,"IGR-1, IGR-1 cells",> 30 µM
same,IC50,"IGR-1, cell line IGR-1, skin",> 30 µM
same,IC50,"IGR-37, cell line IGR-37, skin",24.3 µM
same,IC50,"IGROV-1, IGROV1 cells",> 30 µM
same,IC50,"IGROV-1, cell line IGROV1, ovary",> 30 µM
same,IC50,"IMR-32, IMR-32",24.2 µM
same,EC50,"IMR-32, IMR-32",24.2 µM
same,IC50,"IMR-32, IMR-32 cells",24.2 µM
same,EC50,"IMR-32, IMR-32 cells",24.2 µM
same,IC50,"IPC-298, IPC-298",> 30 µM
same,EC50,"IPC-298, IPC-298",1.04 µM
same,IC50,"IPC-298, cell line IPC-298",> 30 µM
same,IC50,"Ishikawa, Ishikawa (Heraklio) 02 ER- cells",> 30 µM
same,IC50,"Ishikawa, Ishikawa (Heraklio) 02 ER-",> 30 µM
same,IC50,"J82, J82",> 30 µM
same,EC50,"J82, J82",20.1 µM
same,IC50,"JIMT-1, JIMT-1",> 30 µM
same,IC50,"JIMT-1, JIMT-1 cells",> 30 µM
same,IC50,"JJN-3, JJN-3",> 30 µM
same,IC50,"JJN-3, cell line JJN-3",> 30 µM
same,IC50,"JVM-2, JVM-2",21 µM
same,EC50,"JVM-2, JVM-2",21 µM
same,IC50,"JVM-2, JVM-2 cells",21 µM
same,EC50,"JVM-2, JVM-2 cells",21 µM
same,IC50,"JVM-3, JVM-3",> 30 µM
same,IC50,"JVM-3, cell line JVM-3",> 30 µM
same,IC50,"JeKo-1, JeKo-1",8.21 µM
same,EC50,"JeKo-1, JeKo-1",7.64 µM
same,EC50,"JeKo-1, JeKo-1 cells",7.64 µM
same,IC50,Jurkat,16.1 µM
same,IC50,"K562, K-562",> 30 µM
same,EC50,"K562, K-562",9.57 µM
same,IC50,"K562, cell line K-562",> 30 µM
same,IC50,"KARPAS-299, KARPAS-299",13.2 µM
